This note sets out measurements from patent publication US11123337B2, “4-methylsulfonyl-substituted piperidine urea compounds” (MYOKARDIA, INC., priority 2015, dated 2021).

In this assay the target is bovine cardiac myosin (Bos taurus, UniProt Q9BE39). Kind of assay: Myosin activation assay (PK/LDH-coupled ATPase, bovine cardiac myofibrils). It counts as biochemical. The note with it: AC20 = concentration at which total response is increased by twenty percent. An outline of the steps: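 Values are the concentrations raising the ATPase rate by 20% or 50% over DMSO, from 10-point dose responses fitted with four parameters. Rate is NADH loss at 340 nm via PK/LDH coupling, read 15 min at room temperature, in pH 6.8 PIPES with 50 μM ATP. Bovine cardiac myofibrils were held at pCa ~6 or pCa 10.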
Sequence of bovine cardiac myosin (Q9BE39 whole entry): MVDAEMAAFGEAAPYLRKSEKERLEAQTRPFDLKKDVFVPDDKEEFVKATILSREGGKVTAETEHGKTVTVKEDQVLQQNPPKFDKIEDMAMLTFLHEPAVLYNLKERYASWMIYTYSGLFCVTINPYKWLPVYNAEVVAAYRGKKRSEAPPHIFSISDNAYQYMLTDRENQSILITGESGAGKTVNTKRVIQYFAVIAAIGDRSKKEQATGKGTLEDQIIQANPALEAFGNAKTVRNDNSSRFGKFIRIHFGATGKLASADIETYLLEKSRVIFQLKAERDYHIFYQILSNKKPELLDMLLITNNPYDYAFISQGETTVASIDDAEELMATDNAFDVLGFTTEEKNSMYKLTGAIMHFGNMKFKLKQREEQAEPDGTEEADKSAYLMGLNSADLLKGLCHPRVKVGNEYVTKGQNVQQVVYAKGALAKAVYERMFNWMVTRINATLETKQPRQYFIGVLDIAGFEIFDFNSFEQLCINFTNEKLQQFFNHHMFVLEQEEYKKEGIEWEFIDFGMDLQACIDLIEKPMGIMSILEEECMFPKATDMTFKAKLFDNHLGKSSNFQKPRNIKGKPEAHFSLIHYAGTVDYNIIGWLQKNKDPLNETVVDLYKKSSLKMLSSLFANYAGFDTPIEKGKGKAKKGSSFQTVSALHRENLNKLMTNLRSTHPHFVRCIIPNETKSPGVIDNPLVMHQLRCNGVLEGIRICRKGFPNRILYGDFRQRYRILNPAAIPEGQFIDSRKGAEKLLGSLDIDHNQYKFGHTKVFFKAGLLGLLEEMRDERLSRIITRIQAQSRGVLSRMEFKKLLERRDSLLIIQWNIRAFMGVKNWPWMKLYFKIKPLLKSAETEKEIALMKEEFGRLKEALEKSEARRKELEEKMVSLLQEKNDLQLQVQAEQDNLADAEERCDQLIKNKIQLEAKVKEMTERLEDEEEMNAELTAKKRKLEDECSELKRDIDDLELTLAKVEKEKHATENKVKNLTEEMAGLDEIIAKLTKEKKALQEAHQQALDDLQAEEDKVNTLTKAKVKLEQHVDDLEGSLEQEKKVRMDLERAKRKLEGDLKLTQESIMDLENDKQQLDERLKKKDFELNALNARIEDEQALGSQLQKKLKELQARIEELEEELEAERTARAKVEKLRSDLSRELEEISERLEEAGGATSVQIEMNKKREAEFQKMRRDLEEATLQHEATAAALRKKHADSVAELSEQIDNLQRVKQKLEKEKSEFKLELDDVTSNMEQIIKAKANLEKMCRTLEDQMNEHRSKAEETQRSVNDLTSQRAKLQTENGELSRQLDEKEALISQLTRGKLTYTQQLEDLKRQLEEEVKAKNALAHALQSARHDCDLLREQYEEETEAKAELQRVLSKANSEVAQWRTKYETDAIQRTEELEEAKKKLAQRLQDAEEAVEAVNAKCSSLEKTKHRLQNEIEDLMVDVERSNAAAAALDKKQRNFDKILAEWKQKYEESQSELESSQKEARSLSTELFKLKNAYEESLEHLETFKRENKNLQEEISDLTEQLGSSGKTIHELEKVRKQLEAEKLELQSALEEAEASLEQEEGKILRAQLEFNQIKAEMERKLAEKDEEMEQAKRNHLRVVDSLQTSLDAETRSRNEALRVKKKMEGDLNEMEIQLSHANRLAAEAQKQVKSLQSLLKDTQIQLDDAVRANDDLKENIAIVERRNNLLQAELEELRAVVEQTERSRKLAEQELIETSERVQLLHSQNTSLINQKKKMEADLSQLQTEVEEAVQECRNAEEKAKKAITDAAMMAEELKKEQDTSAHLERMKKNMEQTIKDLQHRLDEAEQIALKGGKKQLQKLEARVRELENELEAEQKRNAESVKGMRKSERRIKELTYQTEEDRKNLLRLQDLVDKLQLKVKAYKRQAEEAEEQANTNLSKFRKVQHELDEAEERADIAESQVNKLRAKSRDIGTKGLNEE
Sequence of bovine cardiac myosin (P85100 whole entry partner): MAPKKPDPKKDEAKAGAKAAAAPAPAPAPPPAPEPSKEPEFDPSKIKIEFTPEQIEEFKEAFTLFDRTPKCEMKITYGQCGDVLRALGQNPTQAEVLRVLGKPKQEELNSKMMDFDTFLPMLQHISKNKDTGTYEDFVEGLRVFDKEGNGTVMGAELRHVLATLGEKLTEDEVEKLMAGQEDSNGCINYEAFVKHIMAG
Sequence of bovine cardiac myosin (Q3SZE5 whole entry partner): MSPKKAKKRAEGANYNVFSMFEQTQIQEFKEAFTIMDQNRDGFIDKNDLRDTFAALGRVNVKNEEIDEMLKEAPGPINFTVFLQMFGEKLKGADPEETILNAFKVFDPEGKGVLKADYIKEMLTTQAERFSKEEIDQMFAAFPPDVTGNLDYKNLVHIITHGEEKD

`Cn1cc(S(=O)(=O)C(C)(C)C2CCN(C(=O)Nc3cccnc3)CC2)c(C(F)F)n1` [Compound 118, 4-(2-((3-(difluoromethyl)-1-methyl-1H-pyrazol-4-yl)sulfonyl)propan-2-yl)-N-(pyridin-3-yl)piperidine-1-carboxamide]: the “Myosin Activation (AC20)” value is “+++ (+++ represents myosin activation value AC20 < 2 μM)”.

On to `N#Cc1cc(C(F)(F)F)ccc1S(=O)(=O)C(F)(F)C1CCN(C(=O)Nc2ccnnc2)CC1` [Compound 3, 4-(((2-Cyano-4-(trifluoromethyl)phenyl)sulfonyl)difluoromethyl)-N-(pyridazin-4-yl)piperidine-1-carboxamide], for which the “Myosin Activation (AC20)” value is “+++ (+++ represents myosin activation value AC20 < 2 μM)”.

On to `CC(F)(C1CCN(C(=O)Nc2ccc(F)nc2)CC1)S(=O)(=O)c1ccc(C#N)cc1` (centres unmarked) [Compound 240, 4-(1-((4-cyanophenyl)sulfonyl)-1-fluoroethyl)-N-(6-fluoropyridin-3-yl)piperidine-1-carboxamide], for which the “Myosin Activation (AC20)” value was “++ (++ represents myosin activation value AC20 from 2 μM-5 μM)”.

For the molecule `COc1ccc(F)cc1S(=O)(=O)C(F)(F)C1CCN(C(=O)Nc2ccnnc2)CC1` [Compound 68, 4-(difluoro((5-fluoro-2-methoxyphenyl)sulfonyl)methyl)-N-(pyridazin-4-yl)piperidine-1-carboxamide], the “Myosin Activation (AC20)” value is reported as “+ (+ represents myosin activation value AC20 > 5 μM)”.

On to `Cn1cc(S(=O)(=O)[C@@](C)(F)C2CCN(C(=O)Nc3cc[nH]n3)CC2)c(C(F)F)n1` [Compound 290, (R)-4-(1-((3-(difluoromethyl)-1-methyl-1H-pyrazol-4-yl)sulfonyl)-1-fluoroethyl)-N-(1H-pyrazol-3-yl)piperidine-1-carboxamide], for which the “Myosin Activation (AC20)” value was “++ (++ represents myosin activation value AC20 from 2 μM-5 μM)”.

Regarding `Cc1ccc(F)cc1S(=O)(=O)C(F)(F)C1CCN(C(=O)Nc2ccnnc2)CC1` [Compound 63, 4-(difluoro((5-fluoro-2-methylphenyl)sulfonyl)methyl)-N-(pyridazin-4-yl)piperidine-1-carboxamide], the “Myosin Activation (AC20)” value is on record as “++ (++ represents myosin activation value AC20 from 2 μM-5 μM)”.

For `Cn1nccc1S(=O)(=O)C(C)(C)C1CCN(C(=O)Nc2ccnc(F)c2)CC1` [Compound 134, N-(2-fluoropyridin-4-yl)-4-(2-((1-methyl-1H-pyrazol-5-yl)sulfonyl)propan-2-yl)piperidine-1-carboxamide], the “Myosin Activation (AC20)” value is recorded as “++ (++ represents myosin activation value AC20 from 2 μM-5 μM)”.

Regarding `C[C@@H](O)c1cc(NC(=O)N2CCC(C(F)(F)S(=O)(=O)c3cn(C)nc3C(F)F)CC2)ccn1` [Compound 100, (R)-4-(((3-(difluoromethyl)-1-methyl-1H-pyrazol-4-yl)sulfonyl)difluoromethyl)-N-(2-(1-hydroxyethyl)pyridin-4-yl)piperidine-1-carboxamide], the “Myosin Activation (AC20)” value is recorded as “+ (+ represents myosin activation value AC20 > 5 μM)”.

As for `CC(F)(C1CCN(C(=O)Nc2ccon2)CC1)S(=O)(=O)c1ccc(C#N)cc1` (centres unmarked) [Compound 283, 4-(1-((4-cyanophenyl)sulfonyl)-1-fluoroethyl)-N-(isoxazol-3-yl)piperidine-1-carboxamide], the “Myosin Activation (AC20)” value is listed as “++ (++ represents myosin activation value AC20 from 2 μM-5 μM)”.

`Cn1ccc(NC(=O)N2CCC(C(C)(C)S(=O)(=O)c3cccc(F)c3)CC2)n1` [Compound 138, 4-(2-((3-fluorophenyl)sulfonyl)propan-2-yl)-N-(1-methyl-1H-pyrazol-3-yl)piperidine-1-carboxamide]: the “Myosin Activation (AC20)” value is reported as “+ (+ represents myosin activation value AC20 > 5 μM)”.

Turning to `CC(F)(C1CCN(C(=O)Nc2ccnnc2)CC1)S(=O)(=O)c1ccc(C(F)(F)F)cc1` (centres unmarked) [Compound 266, 4-(1-fluoro-1-((4-(trifluoromethyl)phenyl)sulfonyl)ethyl)-N-(pyridazin-4-yl)piperidine-1-carboxamide], the “Myosin Activation (AC20)” value was “++ (++ represents myosin activation value AC20 from 2 μM-5 μM)”.
